# Experimental data reported in patent publication US5093045A, “Biologically active lipids binding membrane receptors” (priority 1990, dated 1992).
# Values joined by “and” are separate entries in the source; they are usually repeats but may differ in a detail not shown here. Equal entries are not always repeated.
# Columns and labels:
# [1] = system: phorboid receptor (PDBu receptor) of murine brain membranous fraction (BMF); experiment: PDBu binding inhibiting activity (PBIA): inhibition of 3H-PDBu binding to murine brain membranous fraction; design: species or system mouse
# Description: Pooled murine brains from approximately 2 month old mice, NFS strain, were minced with scissors, suspended in 1 mM triethanolamine-HCl, pH 7.4, and disrupted with a polytron P-10 (Brinkman). This and all subsequent steps were performed at 4° C. The homogenate was centrifuged for 10 minutes at 1700xg; the supernate was removed and centrifuged for 60 minutes at 105,000xg. The resulting pellet was suspended in one-fourth of the initial volume of PBS. The suspension was aliquoted into a small volume and stored at -70° C.
# The binding of ^3 H-PDBu to BMF or soluble receptors was performed in duplicate in 12×75mm disposable glass tubes (Kimax) both in the absence and presence of 20μg/ml unlabeled PDBu; the binding mixture contained 5ng of ^3 H-PDBu (4×10^4 cpm), 0.2% final concentration of DMSO and BMF (50μg protein) or soluble receptors in a total volume of 0.25 ml binding buffer (BB) consisting of Dulbecco's […] (DMEM) containing bovine serum albumin (BSA lmg/ml) and N,N,-bis-(2-hydroxyethyl)-2-amino-ethane sulfonic acid (BES, 5mM), adjusted to pH 6.8. After incubation for 30 minutes at 23° C. the tubes were chilled, 0.5 ml cold 4% calf serum (Colorado Serum Co., Denver, CO) and 0.7 ml cold polyethylene glycol (PEG 6,000) in 1 mM Tris-HCl, pH 7.4 was added to each tube, the contents vortexed, the tubes allowed to stand for 15 min at 4° C., and centrifuged for 10 min at 1500xg at 4° C. The supernatant solution was carefully aspirated off, the pellet suspended in 2.5 ml of cold 10% PEG in 0.1 M Tris-HCl, pH 7.4, containing 0.5% SDS and 1 mM EDTA). The mixture was transferred to counting vials and 10 ml of Aquassure (NEN) was added to each vial. The vials were vigorously shaken and radioactivity determined using a Beckman beta counter.
# The loss of the ability of ^3 H-PDBu to bind to receptors in the presence of ligand was used as the measure of inhibiting activity. PDBu binding inhibition assays were performed as described above, except the test materials were added to the reaction mixture and binding measured as described above.
# The PBIA of ligand was equated with that of PDBu by the use of the term ng equivalent calculated from a plot of [^3 H]PDBu bound versus the log molar concentration for several biologically active phorbol esters (2). The curve corresponding to PDBu inhibition of PDBu binding was used by reading the molar concentration corresponding to the percent of control binding of ^3 H]PDBu in the presence of ligand to obtain the units ng PDBu equivalent of ligand.
# [2] = system: arachidonic acid cascade in mink lung cells; experiment: Stimulation of arachidonic acid cascade: release of radioactivity from cells prelabeled with arachidonic acid; type: cell-based; conditions: cells previously labeled with radioactive arachidonic acid
# Source text: The release of radioactivity into the medium from cells previously labeled with radioactive arachidonic was used as a measure of activation of eicosanoids pathway. […] PBIL from all sources inhibited PDBu-receptor interaction.
Inhibition (%) of binding of PDBu to its receptor ([1]; concentration 0.8 nM),Inhibition (%) of binding of PDBu to its receptor ([1]; concentration 0.4 nM),Compound,also measured
20%,,"CCCCCCCC/C=C\CCCCCCCC(=O)OCC(CO)OC(=O)CCCCCCC/C=C\CCCCCCCC (centres unmarked) [1,2-Diolein]",
15%,,"CCCCC/C=C\C/C=C\CCCCCCCC(=O)OCC(O)COC(=O)CCCCCCC/C=C\C/C=C\CCCCC [1,3-Dilinolein]",
,1%,"CCCCCCCCCCCCCC(=O)OCC(O)COC(=O)CCCCCCCCCCCCC [1,3-Dimyritin]",
11%,,"CCCCCCCC/C=C\CCCCCCCC(=O)OCC(O)COC(=O)CCCCCCC/C=C\CCCCCCCC [1,3-Diolein]",
-12%,,"CCCCCCCCCCCCCCCC(=O)OCC(O)COC(=O)CCCCCCCCCCCCCCC [1,3-Dipalmitin]",
94%,82%,CCCCC/C=C\C/C=C\CCCCCCCC(=O)OC[C@@H](O)CO [1-Monolinolein],Competition with phorbol dibutyrate for its receptor (qualitative) [1]: compete with phorbol dibutyrate for its receptor; Inhibition (%) of binding of PDBu to its receptor ([1]; concentration 0.2 nM): 39%; Stimulation of arachidonic acid cascade (release of radioactivity into the medium) ([2]; listed as 1-monolinolein): stimulate the arachidonic acid cascade; Stimulation of arachidonic acid cascade (release of radioactivity into the medium) ([2]; listed as monolinolein): activated the arachidonic acid cascade
,0%,CCCCCCCCCCCCCC(=O)OCC(O)CO (centres unmarked) [1-Monomyristin],
,,CCCCCCCCCCCCCCCC(=O)OCC(O)CO (centres unmarked) [1-Monopalmitin],"Inhibition (%) of binding of PDBu to its receptor ([1]; concentration 0.8 nM, 0.0008 µM): -6% and -15%"
82%,36%,CCCCCC/C=C\CCCCCCCC(=O)OCC(O)CO (centres unmarked) [1-Monopalmitolein],Competition with phorbol dibutyrate for its receptor (qualitative) [1]: compete with phorbol dibutyrate for its receptor; Stimulation of arachidonic acid cascade (release of radioactivity into the medium) [2]: stimulate the arachidonic acid cascade
,0%,OCC(O)CO [Glycerol],
15%,10%,CCCCC/C=C\C/C=C\CCCCCCCC(=O)O [Linoleic acid-Na],
,11%,CCCCCCCCCCCC(=O)OCC(COC(=O)CCCCCCCCCCC)OC(=O)CCCCCCCCCCC [Trilaurin],
-1%,,CCCCC/C=C\C/C=C\CCCCCCCC(=O)OCC(COC(=O)CCCCCCC/C=C\C/C=C\CCCCC)OC(=O)CCCCCCC/C=C\C/C=C\CCCCC [Trilinolein],
,15%,CCCCCCCCCCCCCC(=O)OCC(COC(=O)CCCCCCCCCCCCC)OC(=O)CCCCCCCCCCCCC [Trimystrin],
-8%,-11%,CCCCCCCCCCCCCCCC(=O)OCC(COC(=O)CCCCCCCCCCCCCCC)OC(=O)CCCCCCCCCCCCCCC [Tripalmitin],

Compound,Inhibition (%) of binding of PDBu to its receptor ([1]; concentration 0.8 nM),Inhibition (%) of binding of PDBu to its receptor ([1]; concentration 0.4 nM),also measured
CCCCC/C=C\C/C=C\C/C=C\C/C=C\CCCC(=O)OCC(O)CO (centres unmarked) [1-Monoarachidonin],95%,91%,Competition with phorbol dibutyrate for its receptor (qualitative) [1]: compete with phorbol dibutyrate for its receptor; Inhibition (%) of binding of PDBu to its receptor ([1]; concentration 0.2 nM): 41%; Stimulation of arachidonic acid cascade (release of radioactivity into the medium) [2]: stimulate the arachidonic acid cascade
CC/C=C\C/C=C\C/C=C\CCCCCCCC(=O)OCC(O)CO (centres unmarked) [1-Monolinolenin],94%,74%,Inhibition (%) of binding of PDBu to its receptor ([1]; concentration 0.2 nM): 27%
CCCCCCCC/C=C\CCCCCCCC(=O)OCC(O)CO (centres unmarked) [1-Monoolein],63%,21%,
